Here are results for three substances from patent US20250213452A1, “BIFUNCTIONAL PEPTIDES FOR BIOMIMETIC RECONSTRUCTION OF SILVER DIAMINE FLUORIDE TREATED DENTAL TISSUES” (University of Kansas, priority 2022, published 2025).

The conditions of test [1]: cell-free assay, demineralized human dentin root surfaces; cited from earlier work.
Test [2] is described as follows: Enzyme-mediated (alkaline phosphatase) mineralization on Ag-coated silica substrates, SEM/EDS. Conditions: 50 μM bifunctional peptide. As to the method:
(§1) Lyophilized peptide stocks were selected and reconstituted in Milli-Q (resistance, >18 MQ) water immediately prior to experiments with both silver-coated silica substrates and slabs of dental tissue. Stock solutions were prepared to a final concentration of 100 μM peptide. Silica substrates or slabs of dental tissue were submerged into a solution containing 50 μM peptide and allowed 2-4 hours gentle shaking at room temperature to ensure the binding of AgBP. This excess concentration and incubation time was used to ensure ample peptide binding.
To confirm the selectivity and specificity for silver-binding of bifunctional peptides, preliminary studies were conducted on silver-coated silica substrates. Silica wafers were cut into 1 cm square pieces using a diamond scribe and a published protocol for […] deposition of silver onto silica was followed.^66,67 Briefly, the Si(111) wafers were cleansed in hydrogen peroxide and sulfuric acid solution (3:7) for 20 minutes, rinsed thoroughly with Milli-Q water, and dried with N2 gas prior to use. An etching step was employed prior to Ag-deposition, where a drop of 5% NH4F solution was placed on the surface of the cleaned silica substrate for 30 s and removed carefully with N2 gas. […]

Test [3] is described as follows: Enzyme-mediated mineralization on SDF-treated dental tissue slabs, SEM/EDS Ca/P ratio of mineral layer. Set-up: species or system human. Conditions: for Averaged calculated Ca/P ratio: Mineralized sample. As to the method:
as §1
NaCl containing 0.002% sodium azide.
To investigate calcium phosphate nucleation facilitated by the MP, an alkaline phosphatase (AP) based mineralization model was followed.^44 This model mimics the biological process wherein inorganic phosphate is cleaved from organic phosphate by naturally occurring AP and subsequently reacts with free calcium. Briefly, control samples without peptide and test samples functionalized with MP were submerged in a remineralization buffer containing 14.4 mM β-glycerophosphate (β-GP) and 24 mM Ca^2+ in 25 mM Tris-HCl at pH 7.4. Mineralization reactions were initiated by adding alkaline phosphatase (fastAP; ThermoFisher, USA) to the solutions to achieve a final concentration of 1.4×10^−6 g/mL and allowed to react at 37° C. for 2 hours to form a calcium phosphate mineral layer on the sample surface. Samples were removed from the solution and allowed to air dry prior to microscopic and spectroscopic analyses.
For the bifunctional peptide treated group, SDF-treated dental tissues were functionalized with either 0 μM or 50 μM bifunctional peptide prior to the mineralization protocol. […] On average, the Ca/P ratios from the mineralized layer observed in both the peptide-treated and SDF-treated tissue as well as the SDF-only treated tissues, were about 0.1-0.15 less than what was obtained for the untreated and peptide-functionalized Ag-coated silica samples. The presence of calcium phosphate rich minerals in the slabs of dental tissue may alter the availability of free calcium and phosphate in the enzyme-mediated mineralization reaction. […] Differences in the mineralization may also be attributed to the anchoring effect of the AgBP peptide being bound to the SDF-treated regions of the dental tissue.

The conditions of test [4]: SDF-treated Control.
Experimental: Specimens of dental tissues were prepared using a protocol modified slightly from previous publications.^45 The specimens consisted of extracted human molars. […] The extracted teeth were stored at 4° C. in 0.9% wt./vol. NaCl containing 0.002% sodium azide. […] The tooth was sectioned parallel to the long axis to provide 1.4 mm thick slabs. The prepared sections were stored in a modified phosphate buffered saline (PBS) buffer (20 mM Na2HPO4, 137 mM NaCl, 2.7 mM KCl, and 1.8 mM KH2PO4, pH 7.4) at 4° C. until experimental use.
SDF was applied to dental tissue following the detailed guidelines published by the UCSF Caries Arrest Committee.^25,34 Briefly, the prepared slabs of dental tissue were removed from the modified PBS buffer, rinsed with Milli-Q purified water, and gently dried with compressed air to reveal suitable carious regions of the dental tissues. A single drop of commercially available 38% SDF solution (Dengen Caries Arrest; Dengen Dental, Bahadurgarh, Haryana, India) was placed into a fresh plastic dish. A microbrush applicator head was dipped into the solution and touched to the side of the dish to remove excess fluid by surface tension. The SDF was applied to the dental tissue, allowed to absorb for 1 minute and the treated sample was gently rinsed with Milli-Q purified water. The tissue was placed back into modified PBS buffer and incubated at 37° C. for 6 hours to mimic the oral environment and to allow for SDF activity.
To image the mineral morphology, surface coverage, and to determine the Ca/P ratios of the precipitated material, a Hitachi SU8230 Field Emission Scanning Electron Microscope (Hitachi High-Tech America, IL, USA) equipped with a silicon drift EDS detector (X-Max, Oxford Instruments, MA, USA) was used. SEM imaging was completed at 5 kV and EDS measurements made with an acceleration voltage of 10 kV to improve signal. Prior to SEM/EDS analysis, samples were sputter-coated with 5 nm iridium using a Quorum sputter coating system (Q150, Quorum, UK). EDS analysis was performed using AZtec software (Oxford Instruments, MA, USA) and values were averaged across a minimum of three regions for each sample.
Treated dental tissues were analyzed using SEM for imaging and EDS for compositional analysis. Average Ca/P molar ratios were calculated for each slab of dental tissue from both SDF-treated and untreated regions of enamel and dentin, corresponding to SDF treatment of carious dental tissues, to assess mineral formation and compositional changes on the tooth samples in the presence and absence of the bifunctional peptide.

Where two headings read alike, the source gives them in different places.

Take “SYEKSHSQAINTDRT [MP, mineralizing peptide domain, 15 amino acids, derived from amelogenin]”: the “hydroxyapatite mineral layer formation” value in test [1] is recorded as “regulated formation of a robust hydroxyapatite mineral layer”.

In the case of “SYEKSHSQAINTDRTAPAEQLGVRKELRGV [MP_APA_AgBP, bifunctional peptide, MP and AgBP domains joined by APA spacer]”, the “average Ca/P ratio of mineral layer” value in test [2] (EDS) was “about 1.40”. Also, in test [2] (alkaline phosphatase-based mineralization, SEM), the “mineral coverage compared to control samples” value is given as “significantly higher mineral coverage”. In addition, the “Averaged calculated Ca/P ratio” value in test [3] (SDF-treated Peptide-functionalized (50 μM), Dentin) is 1.291; in test [3] (SDF-treated Peptide-functionalized (50 μM), Enamel) it was 1.338; in test [3] (SDF-treated Peptide-functionalized (50 μM), SDF-stained dentin), 1.238; in test [3] (SDF-treated Peptide-functionalized (50 μM), SDF-stained enamel) it was 1.257. For the same substance, the “mineralization onto SDF treated dental tissues” value in test [3] (four SDF treated slabs of carious dental tissue, bright field optical microscopy, FIG. 7) is given as “demonstrated the capacity to direct mineralization”.

For silver diamine fluoride [SDF], the “Averaged calculated Ca/P ratio” value is 1.066 in test [3] (SDF-treated, 0 μM peptide, Dentin); 1.092 in test [3] (SDF-treated, 0 μM peptide, Enamel); 1.137 in test [3] (SDF-treated, 0 μM peptide, SDF-stained dentin); 1.100 in test [3] (SDF-treated, 0 μM peptide, SDF-stained enamel); 1.419 in test [4] (Dentin (untreated region)); 1.447 in test [4] (Enamel (untreated region)). Further, the “Averaged calculated Ca/P ratio” value is listed as 1.546 in test [4] (SDF-stained dentin) and 1.540 in test [4] (SDF-stained enamel).
